Measured values: patent US20160374979A1, “Method of Treatment of Alopecia with Monoterpenoids” (CELLMID LIMITED, priority 2013, published 2016)
“Also recorded” adds a separate entry of the source.

Columns and labels:
[1] = test system: FGF-5-dependent cell proliferation (FR-BaF3 cells expressing FGFR-1c); assay: FR-Ba/F3 cell proliferation/viability assay in the presence of FGF-5 (CCK-8); format: cell-based, murine; details: for FGF-5-inhibitory activity (in words): judged from FR-BaF3 result; for Suppression of FGF-5-dependent cell proliferation and viability: FR-BaF3 cells, in words (FIGS. 1(a)-1(h)); for FGF-5 Specificity IL-1/FGF-5: ratio of the IC50 with IL-3 to the IC50 with FGF-5, BR: less reproducible
Procedure: Ba/F3 is a murine interleukin-3 (IL-3)-dependent pro-B cell line. […] That is, compounds were tested for their ability to modulate proliferation of FR-Ba/F3 cells in the presence of recombinant human FGF-5 (rhFGF-5) prepared according to Maeda et al., Nishi Nihon Hifuka, 69(1): 81-86, 2007.
Briefly, a suitable plasmid expressing FGFR-1c was introduced into […] ER-Ba/F3 cells, and the cells were maintained in RPMI RPMI-1640 with 10% FBS and 1.3×10^−17 M of murine IL-3 (Sigma, St Louis, […].) containing antibiotic G418 sulfate (Promega, Medison, Wis.). The inventors compared proliferation of FR/BaF3 cells in culture medium containing IL3 or FGF-5 and a different concentration in the range from 0.005% (w/v) to 1.0% (w/v) of each test compound listed in Example 1. The FR-BaF3 cells were seeded at 5×10^4/mL cells per well in 96-well, micro-culture plates (Falcon) in RPMI-1640 culture medium containing 10% fetal bovine serum, 5 μg/mL heparin. Recombinant human FGF-5 (rhFGF-5; 1 μg/mL) was added to one group, and IL-3 (0.2 ng/mL) (Sigma) was added to another group. The test compounds were then introduced to the micro-culture plate wells. Total volume of media per well was 100 μl. Control groups lacking test compound were also prepared for each of the IL-3-supplemented and FGF-5-supplemented samples. The plates were then incubated at 37° C. in 5% CO2 for 3 days.
After 3 days, colorimetric assays were performed using a Cell Counting Kit-8 (CCK-8) (Wako) according to the manufacturer's instructions to measure cell proliferation or suppression thereof by the test compound at varying concentrations. Briefly, 10 μl (1:2 dilution) of the CCK-8 reagent was added to each micro-culture plate well after which time the plates were incubated at […] for 3 hours. Absorbance at 450 nm was then measured using a microplate reader. Cell viability and proliferation for the IL-3-supplemented and FGF-5-supplemented groups was calculated as a measure of the optical density (OD) of cells treated with a test compound relative to the OD of the respective untreated controls, excluding the OD of blank controls (media only). Dose response curves were plotted and the respective inhibitory concentrations (IC50) for the test compounds were determined.

[2] = test system: Alkaline Phosphatase (ALP) activity in dermal papilla (DP) cells treated with FGF-5; assay: Dermal papilla alkaline phosphatase (DP-ALP) cell assay; format: cell-based, human; details: for relative ALP activity of DP cells treated FGF-5: 0.005-0.5 mg/ml, GSK3 inhibitor IX + rhFGF-5 1 μg/mL, 3 days, absorbance 490 nm; for FGF-5-inhibitory activity ranked from most active to least active by DP-ALP assay: rank order
Procedure: Dermal papilla cells were prepared according to the methods described in WO2013/105417, Briefly, hairs were pulled from the scalp of a healthy subject showing normal non-alopecia hair growth using tweezers. Hair follicles with dermal papilla were thus obtained at a rate of approximately one for every 100 hairs pulled. The hair follicles with dermal papilla were separated from the hair using tweezers and transferred into a saline for inspection under a microscope. Under a microscope, each dermal papilla was isolated from a respective hair follicle using tweezers and a scalpel. Approximately 2000 isolated dermal papilla cells were then transferred to a 35 mm cell culture dish together 1-2 ml of cell culture medium, after which time the cells were cultured at 37° C. to produce a primary cell culture of dermal papilla. The cell culture medium consisted of approximately 90% DMEM medium, 10% fetal bovine serum (final concentration: 10%), FGF2 (final, concentration: 10 ng/ml), and penicillin-streptornycin solution (final concentration: 1 μg/ml) for every 2 mL of medium. Cell culture conditions were maintained for more than 14 days until dermal papilla cells covered approximately 40% of the area of the 35 mm culture dish, at which time subcultures were performed. To prepare the subcultures, the cell culture medium was removed from the 35 mm culture dish and the adherent cells were washed once with 2 ml of saline (at room temperature). 1 ml Trypsin-EDTA solution (0.1% trypsin and 0.02% EDTA) was then added to the 35 mm culture dish and left to stand for 4 minutes at 37° C. Dissociated dermal papilla cells were then recovered from the 35 mm dish, and seeded to a new 100 mm dish, and cultured in media under the same conditions as for the primary cell culture described above.
When the dermal papilla cells covered approximately 70-80% of the area of each 100 mm culture dish, the sub-confluent cells were subcultured as before. The process was repeated until sufficient cells were obtained to screen compounds of interest.
Once sufficient DP cells were obtained, the cells were harvested to provide a cell suspension. To harvest the DP cells, the cell culture medium was removed from the culture dish, and the adherent cells were washed with saline at room temperature. Trypsin-EDTA solution was then added under conditions described supra to dissociate the cells from the cell culture dish. Approximately 5×10^5 of the dissociated cells were resuspended in 500 ml of assay medium containing 445 ml of DMEM medium, 50 ml of 10% fetal calf serum and 5 ml of antibiotic.
Aliquots of the cell suspension were transferred to the wells of cell culture dishes, and a single monoterpenoid listed in Example 1 e.g., (−)-4-terpinen-4-ol, (+)-4-terpinen-4-ol. (±)-4-terpinen-4-ol, α-terpineol, nonanal, linalyl acetate or piperitone, is added to each well at a concentration of 0.005 (mg/ml) or 0.01 (mg/ml) or 0.05 (mg/ml) or 0.1 (mg/ml) or 0.5 (mg/ml). Cell suspensions were transferred to wells of a further cell culture dish to which minoxidil was then added at a concentration of 0.005 (mg/ml) or 0.01 (mg/ml) or 0.05 (mg/ml) or 0.1 (mg/ml) or 0.5 (mg/ml). A Wnt/β-catenin pathway activation agent e.g., Wnt3a or GSK-3 Inhibitor IX, as added to each of the cell cultures to produce an “activated cell culture”. Control cell cultures containing the same monoterpenoid compound or minoxodil, but lacking the Wnt/β-cinenin pathway activation agent, were processed in parallel. These activated and control cell cultures were divided further into duplicate cell culture samples either lacking FGF-5 or to which recombinant human FGF-5 (rhFGF-5; 1 μg/mL)) was added.
The cell culture samples were each cultured at 37° C. for 3 days under atmosphere containing less than 5% CO2. […]

Row | SMILES | FGF-5-inhibitory activity (in words) [1] | relative ALP activity of DP cells treated FGF-5 [2] | FGF-5-inhibitory activity ranked from most active to least active by DP-ALP assay [2] | Suppression of FGF-5-dependent cell proliferation and viability [1] | FGF-5 Specificity IL-1/FGF-5 [1] | FGF-5-inhibitory activity (in words) ([1]; listed as (−)-terpinen-4-ol)
1 | CC1=CCC(O)(C(C)C)CC1 (racemic) [(±)-4-Terpinen-4-ol, 1-Isopropyl-4-methyl-3-cyclohexen-1-ol] | potent FGF-5-inhibitory active substances | increased relative ALP activity | Piperitone>(−)-terpinen-4-ol>(±)-Terpinen-4β-Terpineol> (+)-Terpinen-4-ol > Linalyl Acetate |  |  | 
2 | CC1=CC[C@](O)(C(C)C)CC1 [(+)-4-Terpinen-4-ol, (1S)-1-Isopropyl-4-methyl-3-cyclohexen-1-ol] | potent FGF-5-inhibitory active substances | increased relative ALP activity | Piperitone>(−)-terpinen-4-ol>(±)-Terpinen-4β-Terpineol> (+)-Terpinen-4-ol > Linalyl Acetate | Suppression of FGF-5-dependent cell proliferation and viability was observed | 9.1> | 
3 | CC1=CC[C@@](O)(C(C)C)CC1 [(−)-4-Terpinen-4-ol, (R)-1-Isopropyl-4-methyl-3-cyclohexen-1-ol] | potent FGF-5-inhibitory active substances | high alkaline phosphatase activity; also recorded: higher alkaline phosphatase activity in dermal papillae than a racemic mixture of terpinen-4-al or (+)-Terpinen-4-ol; also recorded: increased relative ALP activity | Piperitone>(−)-terpinen-4-ol>(±)-Terpinen-4β-Terpineol> (+)-Terpinen-4-ol > Linalyl Acetate | Suppression of FGF-5-dependent cell proliferation and viability was observed | 2> | high FGF-5 inhibitory activity; also recorded: higher FGF-5 inhibitory activity than (+)-terpinen-4-ol
4 | CC(=O)OC/C=C(\C)CCC=C(C)C [Geranyl acetate, (2E)-3,7-Dimethyl-2,6-octadien-1-yl acetate] |  |  |  | Suppression of FGF-5-dependent cell proliferation and viability was observed | 8 (BR) | 
5 | C=CC(C)(O)CCC=C(C)C (stereo not drawn) [Linalool, 3,7-Dimethyl-1,6-octadien-3-ol] |  |  |  | Suppression of FGF-5-dependent cell proliferation and viability was observed | 30> (BR) | 
6 | C=CC(C)(CCC=C(C)C)OC(C)=O (stereo not drawn) [Linalyl acetate, 3,7-Dimethyl-1,6-octadien-3-yl acetate] | potent FGF-5-inhibitory active substances |  | Piperitone>(−)-terpinen-4-ol>(±)-Terpinen-4β-Terpineol> (+)-Terpinen-4-ol > Linalyl Acetate | Suppression of FGF-5-dependent cell proliferation and viability was observed |  | 
7 | CCCCCCCCC=O [Nonanal, reference compound] | potent FGF-5-inhibitory active substances |  |  |  | 9 | 
8 | C=C(C)C1CC=C(C)C(O)C1 (stereo not drawn) [l-Carveol, 2-Methyl-5-(1-methylethenyl)-2-cyclohexen-1-ol] |  |  |  | Suppression of FGF-5-dependent cell proliferation and viability was observed | 2 | 
9 | CC1=CCC(C(C)(C)O)CC1 (stereo not drawn) [α-Terpineol, 2-(4-Methyl-3-cyclohexen-1-yl)-2-propanol] | potent FGF-5-inhibitory active substances | increased relative ALP activity | Piperitone>(−)-terpinen-4-ol>(±)-Terpinen-4β-Terpineol> (+)-Terpinen-4-ol > Linalyl Acetate | Suppression of FGF-5-dependent cell proliferation and viability was observed | 5> | 
